Results reported in US12264159B2, “Functionalized heterocycles as antiviral agents” (Enanta Pharmaceuticals, Inc., priority 2018, dated 2025).

Tested on: HBV in 2.2.15 cells
Test: 2.2.15 cells: viral product in cell lysates quantified via quantitative real time PCR
Format: cell-based, hepatitis B virus (HBV)
Details: Hepatitis B virus, 120 h, day 5 post treatment, 50% reduction of viral product vs no drug controls, readout (qPCR, HBsAg or HBeAg) not specified for the column
Experimental: 2.2.15 cells are passaged upon attaining confluency in DMEM/F12 media in the presence of 10% FBS, Penn/Strep, and 250 ug/mL G418. Novel compounds are 5 fold serially diluted in DMSO and added to 96 well plates containing 35,000 cells/well at a 1:200 dilution so that the final concentration of DMSO is 0.5%. On day 5, post treatment cell lysates and supernatants are harvested for analysis.
Cells are lysed using Agilent Sidestep Lysis buffer, diluted 1:100 and quantified via quantitative real time PCR. Commercially available ELISA kits are used to quantitate the viral proteins HBsAg (Alpco) or HBeAg (US Biological) by following the manufacturer's recommended protocol after diluting samples to match the linear range of their respective assays. Irrespective of readout, compound concentrations that reduce viral product accumulation in the cell lysates or supernatants by 50% relative to no drug controls (EC50) are reported; EC50 ranges are as follows: A<0.1 μM; B 0.2-1 μM; C>1 μM.

Compound | EC50 [nM]
CC(C)[C@@H]1Cn2nc(C3CC3)c(-c3cncc(F)c3)c2-c2cc(=O)c(C(=O)O)cn21 [Example 135, (R)-2-cyclopropyl-1-(5-fluoropyridin-3-yl)-6-isopropyl-10-oxo-5,6-dihydro-10H-pyrazolo[1,5-a]pyrido[2,1-c]pyrazine-9-carboxylic acid] | < 100
CC(C)[C@@H]1Cn2nc(-c3ccncc3)c(-c3ccncc3)c2-c2c(F)c(=O)c(C(=O)O)cn21 [Example 184, (R)-11-fluoro-6-isopropyl-10-oxo-1,2-di(pyridin-4-yl)-5,6-dihydro-10H-pyrazolo[1,5-a]pyrido[2,1-c]pyrazine-9-carboxylic acid] | 200 to 1000
CC(C)(C)[C@@H]1Cn2nc(-c3ccc(F)cc3)c(-c3ccoc3)c2-c2cc(=O)c(C(=O)O)cn21 [Example 167, (R)-6-(tert-butyl)-2-(4-fluorophenyl)-1-(furan-3-yl)-10-oxo-5,6-dihydro-10H-pyrazolo[1,5-a]pyrido[2,1-c]pyrazine-9-carboxylic acid] | < 100
CC(C)[C@@H]1Cn2nc(-c3cccc(Cl)c3)c(-c3cccc(Cl)c3)c2-c2c(F)c(=O)c(C(=O)O)cn21 [Example 185, (R)-1,2-bis(3-chlorophenyl)-11-fluoro-6-isopropyl-10-oxo-5,6-dihydro-10H-pyrazolo[1,5-a]pyrido[2,1-c]pyrazine-9-carboxylic acid] | 200 to 1000
CC(C)[C@@H]1Cn2nc(-c3ccnnc3)c(-c3ccnnc3)c2-c2cc(=O)c(C(=O)O)cn21 [Example 173, (R)-6-isopropyl-10-oxo-1,2-di(pyridazin-4-yl)-5,6-dihydro-10H-pyrazolo[1,5-a]pyrido[2,1-c]pyrazine-9-carboxylic acid] | 200 to 1000
O=C(O)c1cn2c(cc1=O)-c1c(-c3ccccc3F)c(-c3ccccc3F)nn1CC2 [Example 202, 1,2-bis(2-fluorophenyl)-10-oxo-5,6-dihydro-10H-pyrazolo[1,5-a]pyrido[2,1-c]pyrazine-9-carboxylic acid] | < 100
CC(C)[C@@H]1Cn2nc(-c3ccncc3)c(-c3ccncc3)c2-c2cc(=O)c(C(=O)O)cn21 [Example 175, (R)-6-isopropyl-10-oxo-1,2-di(pyridin-4-yl)-5,6-dihydro-10H-pyrazolo[1,5-a]pyrido[2,1-c]pyrazine-9-carboxylic acid] | 200 to 1000
CC(C)[C@@H]1Cn2nc(C3CC3)c(-c3ccnnc3)c2-c2cc(=O)c(C(=O)O)cn21 [Example 145, (R)-2-cyclopropyl-6-isopropyl-10-oxo-1-(pyridazin-4-yl)-5,6-dihydro-10H-pyrazolo[1,5-a]pyrido[2,1-c]pyrazine-9-carboxylic acid] | 200 to 1000
CC(C)[C@@H]1Cn2nc(-c3ccc(OC4CC4)cc3)c(-c3ccc(OC4CC4)cc3)c2-c2cc(=O)c(C(=O)O)cn21 [Example 176, (R)-1,2-bis(4-cyclopropoxyphenyl)-6-isopropyl-10-oxo-5,6-dihydro-10H-pyrazolo[1,5-a]pyrido[2,1-c]pyrazine-9-carboxylic acid] | 200 to 1000
CC(C)[C@@H]1Cn2nc(C3CC3)c(-c3ccccc3O)c2-c2cc(=O)c(C(=O)O)cn21 [Example 141, (R)-2-cyclopropyl-1-(2-hydroxyphenyl)-6-isopropyl-10-oxo-5,6-dihydro-10H-pyrazolo[1,5-a]pyrido[2,1-c]pyrazine-9-carboxylic acid] | < 100
CC(C)[C@@H]1Cn2nc(C3CC3)c(-c3ccncc3)c2-c2cc(=O)c(C(=O)O)cn21 [Example 144, (R)-2-cyclopropyl-6-isopropyl-10-oxo-1-(pyridin-4-yl)-5,6-dihydro-10H-pyrazolo[1,5-a]pyrido[2,1-c]pyrazine-9-carboxylic acid] | < 100
CC(C)(C)[C@@H]1Cn2nc(-c3cc(F)ccc3OCC(F)(F)F)c(Cl)c2-c2cc(=O)c(C(=O)O)cn21 [Example 89, (R)-6-(tert-butyl)-1-chloro-2-(5-fluoro-2-(2,2,2-trifluoroethoxy)phenyl)-10-oxo-5,6-dihydro-10H-pyrazolo[1,5-a]pyrido[2,1-c]pyrazine-9-carboxylic acid] | < 100
CC(C)[C@@H]1Cn2nc(-c3cccc(O)c3)c(-c3cccc(O)c3)c2-c2c(F)c(=O)c(C(=O)O)cn21 [Example 190, (R)-11-fluoro-1,2-bis(3-hydroxyphenyl)-6-isopropyl-10-oxo-5,6-dihydro-10H-pyrazolo[1,5-a]pyrido[2,1-c]pyrazine-9-carboxylic acid] | 200 to 1000
CC(C)(C)[C@@H]1Cn2ncc(-c3ccc(OC(F)(F)F)cc3)c2-c2cc(=O)c(C(=O)O)cn21 [Example 117, (R)-6-(tert-butyl)-10-oxo-1-(4-(trifluoromethoxy)phenyl)-5,6-dihydro-10H-pyrazolo[1,5-a]pyrido[2,1-c]pyrazine-9-carboxylic acid] | > 1000
CC(C)[C@@H]1Cn2nc(-c3cccc(O)c3)c(-c3cccc(O)c3)c2-c2cc(=O)c(C(=O)O)cn21 [Example 178, (R)-1,2-bis(3-hydroxyphenyl)-6-isopropyl-10-oxo-5,6-dihydro-10H-pyrazolo[1,5-a]pyrido[2,1-c]pyrazine-9-carboxylic acid] | < 100
CC(C)[C@@H]1Cn2nc(C3CC3)c(-c3cn[nH]c3)c2-c2cc(=O)c(C(=O)O)cn21 [Example 137, (R)-2-cyclopropyl-6-isopropyl-10-oxo-1-(1H-pyrazol-4-yl)-5,6-dihydro-10H-pyrazolo[1,5-a]pyrido[2,1-c]pyrazine-9-carboxylic acid] | 200 to 1000
CC(C)(C)[C@@H]1Cn2cc(-c3ccc(F)cc3)nc2-c2cc(=O)c(C(=O)O)cn21 [Example 90, (R)-6-(tert-butyl)-2-(4-fluorophenyl)-10-oxo-5,6-dihydro-10H-imidazo[1,2-a]pyrido[2,1-c]pyrazine-9-carboxylic acid] | 200 to 1000
CC(C)[C@@H]1Cn2nc(-c3cncc(F)c3)c(-c3cncc(F)c3)c2-c2cc(=O)c(C(=O)O)cn21 [Example 174, (R)-1,2-bis(5-fluoropyridin-3-yl)-6-isopropyl-10-oxo-5,6-dihydro-10H-pyrazolo[1,5-a]pyrido[2,1-c]pyrazine-9-carboxylic acid] | 200 to 1000
CC(C)(C)[C@@H]1Cn2nc(-c3ccc(F)cc3)c(Cl)c2-c2cc(=O)c(C(=O)O)cn21 [Example 87, (R)-6-(tert-butyl)-1-chloro-2-(4-fluorophenyl)-10-oxo-5,6-dihydro-10H-pyrazolo[1,5-a]pyrido[2,1-c]pyrazine-9-carboxylic acid] | < 100
Cc1ncc(-c2cnn3c2-c2cc(=O)c(C(=O)O)cn2[C@H](C(C)(C)C)C3)s1 [Example 105, (R)-6-(tert-butyl)-1-(2-methylthiazol-5-yl)-10-oxo-5,6-dihydro-10H-pyrazolo[1,5-a]pyrido[2,1-c]pyrazine-9-carboxylic acid] | 200 to 1000
CC(C)[C@@H]1Cn2nc(-c3cccnc3)c(-c3cccnc3)c2-c2cc(=O)c(C(=O)O)cn21 [Example 177, (R)-6-isopropyl-10-oxo-1,2-di(pyridin-3-yl)-5,6-dihydro-10H-pyrazolo[1,5-a]pyrido[2,1-c]pyrazine-9-carboxylic acid] | 200 to 1000
CCOc1ccccc1-c1nn2c(c1F)-c1cc(=O)c(C(=O)O)cn1[C@H](C(C)(C)C)C2 [Example 92, (R)-6-(tert-butyl)-2-(2-ethoxyphenyl)-1-fluoro-10-oxo-5,6-dihydro-10H-pyrazolo[1,5-a]pyrido[2,1-c]pyrazine-9-carboxylic acid] | < 100
CC(C)(C)[C@@H]1Cn2ncc(-c3cncnc3)c2-c2cc(=O)c(C(=O)O)cn21 [Example 120, (R)-6-(tert-butyl)-10-oxo-1-(pyrimidin-5-yl)-5,6-dihydro-10H-pyrazolo[1,5-a]pyrido[2,1-c]pyrazine-9-carboxylic acid] | > 1000
CC(C)(C)[C@@H]1Cn2ncc(Cl)c2-c2cc(=O)c(C(=O)O)cn21 [Example 99, (R)-6-(tert-butyl)-1-chloro-10-oxo-5,6-dihydro-10H-pyrazolo[1,5-a]pyrido[2,1-c]pyrazine-9-carboxylic acid] | 200 to 1000
CC(C)(C)[C@@H]1Cn2ncc(-c3ccncc3)c2-c2cc(=O)c(C(=O)O)cn21 [Example 119, (R)-6-(tert-butyl)-10-oxo-1-(pyridin-4-yl)-5,6-dihydro-10H-pyrazolo[1,5-a]pyrido[2,1-c]pyrazine-9-carboxylic acid] | < 100
CC(C)[C@@H]1Cn2nc(C3CC3)c(-c3cnsc3)c2-c2cc(=O)c(C(=O)O)cn21 [Example 138, (R)-2-cyclopropyl-6-isopropyl-1-(isothiazol-4-yl)-10-oxo-5,6-dihydro-10H-pyrazolo[1,5-a]pyrido[2,1-c]pyrazine-9-carboxylic acid] | < 100
CCOc1ccccc1-c1cnn2c1-c1cc(=O)c(C(=O)O)cn1[C@H](C(C)(C)C)C2 [Example 124, (R)-6-(tert-butyl)-1-(2-ethoxyphenyl)-10-oxo-5,6-dihydro-10H-pyrazolo[1,5-a]pyrido[2,1-c]pyrazine-9-carboxylic acid] | < 100
CC(C)[C@@H]1Cn2nc(-c3ccnnc3)c(-c3ccnnc3)c2-c2c(F)c(=O)c(C(=O)O)cn21 [Example 183, (R)-11-fluoro-6-isopropyl-10-oxo-1,2-di(pyridazin-4-yl)-5,6-dihydro-10H-pyrazolo[1,5-a]pyrido[2,1-c]pyrazine-9-carboxylic acid] | 200 to 1000
CC(C)(C)[C@@H]1Cn2nc(C3CC3)c(-c3ccnnc3)c2-c2cc(=O)c(C(=O)O)cn21 [Example 161, (R)-6-(tert-butyl)-2-cyclopropyl-10-oxo-1-(pyridazin-4-yl)-5,6-dihydro-10H-pyrazolo[1,5-a]pyrido[2,1-c]pyrazine-9-carboxylic acid] | 200 to 1000
